We go through two compounds from patent US4632828A, “Pharmaceutical composition” (priority 1984, dated 1986).

Data set [1] is described as follows: Differential Scanning Calorimetry of MAP/swellable polymer systems. Format: physicochemical. Particulars: DSC; for % Residual of Original Heat of Fusion: relative to pure crystalline MAP. From the text:
Alternatively, the grinding of the MAP-swellable polymer mixture can be stopped at any time the original crystalline form of MAP has been transformed into another, more energetic form.
(In general: Differential scanning calorimetry records heat flow against a reference as temperature is scanned.)

A short description of data set [2]: Solubility (saturation concentration) of MAP/swellable polymer systems. The format is physicochemical. Particulars: pH 5.5 phosphate buffer, 37° C.
Experimental: The flasks were placed in a shaking thermostated apparatus and aliquots of sample solutions were taken by filtering through a Millipore membrane. The concentration of MAP in the filtered aliquot was determined both by spectrophotometry (SP8-100, Pye Unicam), after dilution with methanol, and by HPLC (column: Spherisorb S30DS2, Phase Sep.; mobile phase: acetonitrile/water 70/30 v/v; flow rate: 1 ml/min; U.V. detection, λ=242 nm), after dilution with acetonitrile.

Regarding `CC(=O)O[C@]1(C(C)=O)CC[C@H]2[C@@H]3C[C@H](C)C4=CC(=O)CC[C@]4(C)[C@H]3CC[C@@]21C` [Pure crystalline MAP, 6α-methyl, 17α-hydroxy-progesterone acetate], the “Heat of Fusion” value in data set [1] turned out to be 88.003 J/g. The “Melting Point” value was 205-206 °C in data set [1] and 205.6 °C in data set [1] (listed as pure MAP). Besides, the “% Residual of Original Heat of Fusion” value in data set [1] was 100%. For the same compound, the Solubility (commonly the concentration that dissolves in the medium under given conditions) in data set [2] (5 min) was below 0.04 µg/mL; in data set [2] (15 min), 0.32 µg/mL; in data set [2] (1 hr), 0.68 µg/mL; in data set [2] (6 hrs), 1.00 µg/mL.
Regarding `CC(=O)O[C@]1(C(C)=O)CC[C@H]2[C@@H]3C[C@H](C)C4=CC(=O)CC[C@]4(C)[C@H]3CC[C@@]21C` [Micronized pure MAP, 6α-methyl, 17α-hydroxy-progesterone acetate], in data set [1], the “Heat of Fusion” value is reported as 82.798 J/g, the “Melting Point” value amounted to 205.3 °C and the “% Residual of Original Heat of Fusion” value was determined as 94.1%.
